This note sets out measurements from ChEMBL document CHEMBL1201862, “PubChem BioAssay data set” (2004).

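Results reflect a 48-hour exposure of cells in 96-well plates to compound at five concentrations. GI50 marks 50% less growth.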 Calls of active or inactive are those of the source. Cut-off read from the data, not from the text of the source: active = GI50 up to about 1.1 µM and inactive = higher.

Some test systems named below: EKVX; HCT-116; HL-60; IGROV-1; LOX IMVI; Malme-3M; NCI-H23; NCI/ADR-RES; RXF 393; SF-539; SK-MEL-28; SK-MEL-5; SN12C; UACC-62; 786-0; RPMI-8226; SF-268; SNB-19; SNB-75.
Experiment in all cases: NCI-60 cell line screen, 48 h

Consider `NC(Cc1ccccc1)C(=O)N[C@H]1c2ccsc2/C(=N/O)[C@H]1O` (stereo partly drawn), for which the GI50 in the test with EKVX, in the test with HCT-116, in the test with HL-60, with IGROV-1, with LOX IMVI and in the test with Malme-3M was > 100 µM (inactive) in each case. Further, the GI50 in the test with NCI-H23, in the test with NCI/ADR-RES, with RXF 393, with SF-539, with SK-MEL-28 and in the test on SK-MEL-5 was > 100 µM (inactive) throughout. For the same compound, the GI50 in the test on SN12C and with UACC-62 was > 100 µM (inactive) in each case.

With `O=C(OCC(OC(=O)c1ccccc1)C(OC(=O)c1ccccc1)C(OC(=O)c1ccccc1)c1cnn(-c2ccccc2)n1)c1ccccc1` (stereo not drawn), the GI50 in the test on 786-0, in the test on EKVX, in the test with HCT-116, in the test on HL-60, in the test with IGROV-1 and with LOX IMVI was > 100 µM (inactive) in each case. For the same compound, the GI50 with Malme-3M, with NCI-H23, in the test with NCI/ADR-RES, with RPMI-8226, in the test with RXF 393 and in the test on SF-268 was > 100 µM (inactive) in each case. The GI50 in the test on SF-539, in the test on SK-MEL-28, with SK-MEL-5, in the test on SN12C, with SNB-19 and with UACC-62 was > 100 µM (inactive) each time.

Take `CC1CC[C@@]2(OC1)OC1C[C@H]3[C@@H]4CC=C5CC(OC6OC(CO)C(OC7OC(CO)C(O)C(OC8OCC(O)C(O)C8O)C7OC7OC(CO)C(OC8OC(C)C(OC9OC(C)C(O)C(O)C9O)C(O)C8O)C(O)C7O)C(O)C6O)CCC5(C)[C@H]4CCC3(C)C1[C@@H]2C` (stereo partly drawn): the GI50 is 2.37 µM (inactive) in the test with 786-0; 8.28 µM (inactive) in the test on EKVX; 8.47 µM (inactive) in the test on HCT-116; 8.99 µM (inactive) in the test with HL-60; 8.49 µM (inactive) in the test on IGROV-1; 8.99 µM (inactive) in the test with LOX IMVI. The GI50 in the test on Malme-3M was 10.6 µM (inactive); in the test on NCI-H23, 8.97 µM (inactive); in the test with NCI/ADR-RES, 9.48 µM (inactive); in the test on RPMI-8226, 10.8 µM (inactive); in the test on RXF 393 it was 6.34 µM (inactive); in the test on SF-268, 9.71 µM (inactive). In addition, the GI50 in the test with SF-539 was 6.08 µM (inactive); with SK-MEL-28 it was 11.2 µM (inactive); in the test with SK-MEL-5, 8.69 µM (inactive); with SN12C, 9.35 µM (inactive); in the test on SNB-19 it was 5.61 µM (inactive); with UACC-62, 9.71 µM (inactive).

Regarding `N#Cc1ccc(C2NN=CC23C(=O)c2ccccc2OC3c2ccccc2)cc1` (stereo not drawn), the GI50 in the test on 786-0 is 32.1 µM (inactive); in the test on EKVX, 21.1 µM (inactive); in the test with HCT-116, 20.5 µM (inactive); in the test with HL-60, 59.7 µM (inactive); in the test on IGROV-1, 50.6 µM (inactive); with LOX IMVI, 30.9 µM (inactive). For the same compound, the GI50 with Malme-3M is 53.7 µM (inactive); in the test on NCI-H23, 30.1 µM (inactive); in the test on NCI/ADR-RES it was 31.5 µM (inactive); in the test on RPMI-8226, 20.8 µM (inactive); with RXF 393 it was 15 µM (inactive); in the test on SF-268, 52.4 µM (inactive). The GI50 was 42.2 µM (inactive) with SF-539; 51.1 µM (inactive) in the test on SK-MEL-28; 23.7 µM (inactive) in the test with SK-MEL-5; 41.1 µM (inactive) with SN12C; 27.6 µM (inactive) in the test with SNB-19; 26.7 µM (inactive) with UACC-62.

As for `Cc1cc(-n2nnc(C(=O)O)c2-c2ccccc2)c2ccc(Cl)cc2n1`, the GI50 in the test on 786-0, in the test on EKVX, in the test with HCT-116, in the test on HL-60, with IGROV-1 and with LOX IMVI was > 100 µM (inactive) throughout. Further, the GI50 in the test on Malme-3M, in the test on NCI-H23, in the test with NCI/ADR-RES, with RXF 393, with SF-268 and in the test with SF-539 was > 100 µM (inactive) each time. For the same compound, the GI50 in the test with SK-MEL-28, with SK-MEL-5, in the test with SN12C, with SNB-19, in the test with SNB-75 and with UACC-62 was > 100 µM (inactive) throughout.

For the compound `Nc1c(-c2nc3ccccc3o2)sc(=S)n1-c1ccc(Cl)cc1`, the GI50 was 8.57 µM (inactive) in the test with 786-0; 12.6 µM (inactive) in the test with EKVX; 12.3 µM (inactive) in the test on HCT-116; > 100 µM (inactive) in the test with HL-60; 17.7 µM (inactive) with IGROV-1; 19.1 µM (inactive) with Malme-3M. The GI50 in the test with NCI-H23 was 13.9 µM (inactive); in the test on NCI/ADR-RES, 19.3 µM (inactive); with RPMI-8226 it was 82.6 µM (inactive); in the test on RXF 393 it was 23 µM (inactive); in the test with SF-268 it was 12.9 µM (inactive); in the test with SF-539, 11.6 µM (inactive). For the same compound, the GI50 was 13.9 µM (inactive) with SK-MEL-28; 17.2 µM (inactive) in the test with SK-MEL-5; 51.8 µM (inactive) with SN12C; 13.7 µM (inactive) in the test on SNB-19; 0.452 µM (active) in the test on UACC-62.

On to `O=c1[nH]c(=O)n(C2OC(CO)C(O)C2O)cc1OCCCc1ccccc1` (stereo not drawn), for which the GI50 with 786-0, in the test on EKVX, in the test on HCT-116, with HL-60, in the test on IGROV-1 and with LOX IMVI was > 100 µM (inactive) throughout. The GI50 in the test on Malme-3M, in the test with NCI-H23, in the test with NCI/ADR-RES, with RXF 393, in the test with SF-268 and in the test with SF-539 was > 100 µM (inactive) each time. Further, the GI50 in the test on SK-MEL-28, in the test on SK-MEL-5, in the test with SN12C, in the test with SNB-19 and in the test with UACC-62 was > 100 µM (inactive) in each case.

Consider `CC1(C)CCCC(C)(C2CCC3(C)C2C(O)CC2C4(C)CCC(O)C(C)(C)C4CCC23C)O1` (stereo not drawn), for which the GI50 was 75.7 µM (inactive) with 786-0; > 100 µM (inactive) in the test with EKVX; > 100 µM (inactive) in the test with HCT-116; 26.4 µM (inactive) with HL-60; > 100 µM (inactive) with IGROV-1; > 100 µM (inactive) in the test on LOX IMVI. For the same compound, the GI50 in the test with Malme-3M is 98.6 µM (inactive); with NCI-H23, > 100 µM (inactive); in the test with NCI/ADR-RES, 55 µM (inactive); in the test on RXF 393, 3.72 µM (inactive); in the test on SF-268, 51.1 µM (inactive); in the test on SF-539, 42.9 µM (inactive). Moreover, the GI50 in the test with SK-MEL-28 was > 100 µM (inactive); in the test on SK-MEL-5 it was 47.8 µM (inactive); with SN12C, > 100 µM (inactive); in the test on SNB-19 it was 42.6 µM (inactive); in the test on SNB-75 it was 29.4 µM (inactive); in the test with UACC-62, > 100 µM (inactive).
